Assay results: US20200223826A1, “Glucose-6-Phosphate Dehydrogenase (G6PD)-Modulating Agents And Methods Of Treating G6PD Deficiency” (The Board of Trustees of the Leland Stanford Junior …, priority 2017, published 2020)

Experiments:
[1] = system: SH-SY5Y cells; test: Cell viability assay, SH-SY5Y cells, with and without G6PD siRNA knockdown; assay type: cell-based, human
Protocol: Cell viability was measured using a Cell-Counting Kit-8 (CCK-8, Dojindo), utilizing WST-8 [2-(2-methoxy-4-nitrophenyl)-3-(4-nitrophenyl)-5-(2,4-disulfophenyl)-2H-tetrazolium monosodium salt, according to the manufacturer's instructions. Cells were subjected to serum starvation for 48 hours before measurement. Cells in 100 μL of medium per well were treated with 10 μL of CCK-8 solution and incubated for 2 hours at 37° C. The absorbance was read at 450 nm. Viability of lymphocytes was measured by staining with a 0.4% solution of trypan blue in buffered isotonic salt solution (pH 7.2). The viability was calculated as the number of viable cells (non-stained by the dye) divided by the total number of cells within the grids on the hemacytometer. Cells were treated with 1 μM of the compound 24 hours before the measurement.
Endogenous G6PD was knocked down in each cell line as follows; 2 pmol of siRNA G6PD (Santa Cruz Biotechnology) and 0.5 μg lipofectamine (Invitrogen) were diluted in 10 μL of Opti-MEM medium respectively and incubated for 5 minutes. The diluted siRNA was combined with diluted lipofectamine, which was followed by additional incubation for 20 minutes prior to the addition to cells in a 96-well plate.

[2] = system: lymphocytes carrying the Canton variant; test: Cellular ROS measurement in lymphocytes; assay type: cell-based, human; details: treatment with AG1 for 24 hours
Protocol: Cells in a 96-well plate were incubated with chloromethyl-2′,7′-dichlorodihydrofluorescein diacetate (CM-H2DCFDA) at a final concentration of 5 μM in HBSS (Hank's balanced salt solution) for 30 minutes at 37° C. After wash, cells were treated with Hoechst 33342 (1:10,000 dilution, Molecular Probes) to stain nuclei and incubated for another 10 minutes at 37° C. Cells were washed in HBSS, and the florescence was analyzed with excitation/emission at 485/525 nm. Cells were subjected to serum starvation (50-75%) for 48 hours to induce oxidative stress and treated with the compound for 24 hours before measurement. The signal was normalized to nuclei staining (excitation/emission at 350/470 nm).

[3] = system: human erythrocytes; test: GSH levels in erythrocytes under oxidative stressors; assay type: cell-based; details: drug-induced oxidative stress
Protocol: De-identified blood samples were obtained from the Stanford Blood Center. Erythrocytes were collected by filtering the samples through a cellulose slurry to remove platelets and leukocytes and then washed with saline. G6PD activity was measured (Beutler E. Red cell metabolism: A manual of biochemical methods (3rd edition). Grune & Stratton (1984)). […] A 5% erythrocyte suspension was pre-incubated with 1-5 μM AG1 at 4° C. overnight, which was followed by treatment with (or without) either 1 mM chloroquine (CQ) or 1 mM diamide for 3-4 hours at 37° C. (for hemolysis assay with chloroquine, the mixture was incubated under light). Then centrifugation at 1,000 rpm for 5 minutes was followed. Hemoglobin release in the supernatant was monitored by measuring absorbance at 540 nm. […] After wash, the samples were lysed with 0.1% Triton X-100 (final concentration), and the florescence was analyzed with excitation/emission at 485/525 nm. GSH measurement was determined using a Cayman glutathione assay kit (Cayman Chemicals, 703002). […] The absorbance was read at 412 nm. For storage assay, a 5% erythrocyte suspension was stored at 4° C. with and without 1 μM AG1, and hemolysis and G6PD activity were monitored every week for 28 days to examine whether AG1 improves preservation of erythrocytes over time. Protein leakage was also examined by measuring the absorbance of the supernatant of samples at 280 nm. […]

[4] = system: zebrafish embryos; test: Pericardial edema in zebrafish embryos; assay type: in vivo
Protocol: Embryos were dechorinated with pronase at 24 hours post fertilization (hpf) and treated with 50 μg/ml of chloroquine and/or AG1 by directly adding the compounds to the well. For ROS measurements, embryos were incubated with compounds for 2 hours, and then the ROS detecting reagent (CM-H2DCFDA) was added at a final concentration of 500 ng/ml to the well for a total treatment time of 5 hours. One embryo was placed to each well of a black, opaque 96-well plate. The florescence was analyzed with excitation/emission at 485/525 nm. After ROS assays, embryos at about 32 hpf were pooled and lysed in buffer containing 50 mM Tris (pH 7.4), 150 mM NaCl, 1 mM EDTA, 0.1% NP-40, and protease inhibitor cocktail, which was followed by three cycles of freeze and thawing in liquid nitrogen. The lysate was centrifuged at 14,000 rpm at 4° C. for 15 minutes. Total protein concentration in the supernatants (total lysate) was determined by Bradford method. 50 μg of total lysate was loaded onto 10% SDS-PAGE gels and the protein level was examined by Western blot using anti-G6PD antibody (Abcam (G6PD: AB87230)). 10 μg of total lysate was used for enzymatic assay. 50 μg of the lysate was used to measure NADPH levels using a NADPH quantification kit (Biovision), according to the manufacturer's instructions.
Live embryos were anesthetized and mounted in 3% methylcellulose. Embryos were imaged with a Leica M205FA microscope equipped with a 1.0× Plan Apochromatic objective and a SPOT Flex camera or a Leica DM4500B compound microscope equipped with a QImaging Retiga-SRV camera. For hemoglobin staining, fixed embryos were stained with o-dianisidine as previously reported (10), cleared, mounted in 100% glycerol, and imaged with a Leica M205FA microscope equipped with a 1.0× Plan Apochromatic objective and a SPOT Flex camera. All images were captured using SPOT or MetaMorph imaging software (Diagnostic Imaging Inc.) and processed in Photoshop (Adobe). Adjustments were limited to brightness levels and cropping. Analysis was carried out by an observer blinded to the experimental conditions.

[5] = molecular target: aldehyde dehydrogenase 3A1 (ALDH3A1) (Homo sapiens, UniProt P30838); test: Selectivity: dimerization or activity of other NAD/NADP+-dependent enzymes; assay type: biochemical
aldehyde dehydrogenase 3A1 (ALDH3A1), sequence (P30838 whole entry, species assumed): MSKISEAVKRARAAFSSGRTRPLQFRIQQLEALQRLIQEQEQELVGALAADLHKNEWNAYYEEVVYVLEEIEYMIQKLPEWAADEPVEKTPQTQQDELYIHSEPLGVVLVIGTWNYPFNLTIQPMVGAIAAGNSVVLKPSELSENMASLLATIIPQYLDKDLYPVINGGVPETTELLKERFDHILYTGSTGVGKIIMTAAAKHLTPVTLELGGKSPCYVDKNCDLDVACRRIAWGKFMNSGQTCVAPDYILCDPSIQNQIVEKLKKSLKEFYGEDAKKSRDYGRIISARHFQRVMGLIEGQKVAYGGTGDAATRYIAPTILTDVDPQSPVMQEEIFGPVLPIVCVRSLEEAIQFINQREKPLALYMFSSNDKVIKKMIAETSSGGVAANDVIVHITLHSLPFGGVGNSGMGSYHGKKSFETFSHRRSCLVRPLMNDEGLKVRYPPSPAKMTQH

How did the “increase of viability of SH-SY5Y cells” value ([1]; 1 μM of AG1) turn out when `SCCNCCc1c[nH]c2ccccc12` [AG1, 2-[2-(1H-indol-3-yl)ethylamino]ethanethiol] was run?
Its value is 20%.

And the “effect on viability of SH-SY5Y cells” value ([1]; G6PD knocked down by siRNA)?
Its value is “no effect”.

What about the ROS level [2] of the same compound?
Its ROS level is “decreased”.

And the GSH levels [3]?
Its GSH levels is “increased”.

What about the “embryos exhibiting pericardial edema” value ([4]; chloroquine 50 μg/ml) of the same compound?
The value was “less embryos exhibiting pericardial edema”.

What about the “pericardial edema due to mesoderm defects” value ([4]; tbx16 mutants) of the same compound?
The value was “not corrected”.

What about the “effect on dimerization or activity” value [5] of the same compound?
Its value is “no effect”.
